Measurements from paper PMC4528135, “Kinetic Investigations of the Role of Factor Inhibiting Hypoxia-inducible Factor (FIH) as an Oxygen Sensor” (The Journal of Biological Chemistry, 2015).
Where “and” joins values, the source holds several entries; their conditions need not be identical. Identical values can stand only once. Like-named read-outs stand apart in the source and are kept apart here.

Columns and labels:
FIH [1] = biological target: T1, FIH (Homo sapiens, UniProt Q9NWT6); assay: Rapid quench-flow, FIH pre-steady-state product and succinate formation; format: biochemical; settings: for Rapid quench-flow kproduct / Rapid quench-flow ksuccinate: 0.5 mM apo-FIH, 0.4 mM Fe(II), 5 mM 2OG, 1 mM substrate, 50 mM HEPES pH 7.5, O2-saturated buffer 1:1, 5 °C, quenched with 1% CF3CO2H; for Rapid quench-flow kproduct: hydroxylation by MALDI-TOF-MS, 1–3 separate experiments; for Rapid quench-flow ksuccinate: succinate by LC-MS
T1 construct: Full-length recombinant FIH, two- and three-consensus ankyrin repeats (2CA and 3CA) were produced as described; His6 (cleaved yes); made in house; host or cells: Escherichia coli BL21(DE3)
Protocol: Rapid quench-flow experiments were performed using the same conditions and preparation of the assay mixture as used in stopped-flow experiments. Rapid quench-flow equipment (TgK Scientific Ltd.) in an anaerobic glove box was used for the experiments. Samples were quenched with 1% CF3CO2H and analyzed using MALDI-TOF-MS (peptide hydroxylation) as described above or liquid chromatography-mass spectrometry (LC-MS, for succinate production). For LC-MS, chromatographic separation was performed at 50 °C using a Waters ACQUITY BEH Amide 1.7-μm, 2.1 × 100-mm column on a Waters ACQUITY^TM ultraperformance liquid chromatography system (Waters Corp., Milford, MA). The following eluents were used: mobile phase A: 10% H2O, 90% acetonitrile (v/v), 10 mM ammonium formate; mobile phase B: 50% H2O, 50% acetonitrile (v/v), 10 mM ammonium formate. The elution gradient was 0–7.0 min linear from 10 to 30% B, and 7.0–9.0 min at 10% B for re-equilibration of the column. A constant flow rate of 0.4 ml/min was used. Analytes were detected in negative ionization mode using single reaction monitoring on a Quattro triple quadrupole mass spectrometer (Waters) with a cone voltage of 15 V and a capillary voltage of 3.0 kV. The desolvation temperature was set to 250 °C, and the source temperature was set to 120 °C.
FIGURE 9. Rapid quench-flow experiments showing FIH-catalyzed hydroxylation of HIF-1/2α CAD and ARD substrates. Reaction mixtures containing anaerobic 0.5 mM apo-FIH, 0.4 mM Fe(II), 5 mM 2OG, 1 mM peptide in HEPES 50 mM (pH 7.5) were rapidly mixed with O2-saturated buffer at 5 °C in a 1:1 ratio and then quenched with 1% CF3CO2H at defined time points. The data were fitted with the function, y = a·(1 − exp(−bx)) + c. Hydroxylation levels were assessed by MALDI-TOF-MS. A, hydroxylation of HIF-1α CAD, 1CA, and tankyrase-1 peptide substrates (19- and 20-mers); B, hydroxylation of HIF-1α, HIF-2α, and tankyrase-1 35-mer peptide substrates; C, hydroxylation of 1CA, 2CA, and 3CA. Data plotted were cumulatively acquired over the course of 1–3 separate experiments.

FIH [2] = biological target: T1, FIH; assay: Steady-state kinetics of FIH-catalyzed peptide/protein hydroxylation (MALDI-TOF-MS or LC-MS); format: biochemical; settings: for Km / kcat^app: 50 μM Fe(II), 1 mM L-ascorbate; for kcat^app: MALDI-TOF-MS or LC-MS; for 2OG concentration above which substrate inhibition was observed: FIH steady-state assays with the named CAD peptide
Protocol: Enzymatic assays were conducted as described ([46], [47]). Unless otherwise stated, the assay mixture typically contained 5 μM FIH, 500 μM substrate, 500 μM 2OG, 1 mM L-ascorbate, and 50 μM Fe(NH4)2(SO4)2 or 4 μM PHD2, 100 μM substrate, 300 μM 2OG, 4 mM L-ascorbate, and 50 μM Fe(NH4)2(SO4)2. For HIF-1α CODD19-mer, the background levels of methionine oxidation resulting from assay conditions were subtracted based on non-enzymatic controls ([48]).
The O2 dependence of FIH-catalyzed reactions was determined by conducting enzymatic assays in an “In vivo 500 Hypoxia Workstation” (Ruskinn) using buffers pre-equilibrated under different pO2 values for 24 h. The O2 dependence of PHD2-catalyzed reactions was determined by conducting enzymatic assays in sealed glass vials with variable N2/O2 contents ([42]). Reactions were stopped by spotting samples onto a matrix-assisted laser desorption/ionization-time of flight mass spectrometry (MALDI-TOF-MS) target plate and immediately mixing with α-cyano-4-hydroxycinnamic acid matrix. Hydroxylation levels were assessed by MALDI-TOF-MS as described ([46]).
Samples obtained from FIH kinetic assays with 2CA and 3CA were diluted to a substrate concentration of 5 μM and then analyzed using a Waters® LCT Classic mass spectrometer by electrospray ionization in positive ion mode. An Agilent HP1100 LC system was used, and samples were run through a Phenomenex® Aeris Widepore 3.6-μm XB-C8 150 × 2.1-mm column at 0.5 ml/min in a gradient of phase A (95% H2O, 5% CH3CN, 0.01% formic acid) to phase B (95% CH3CN, 5% H2O, 0.01% formic acid). The LC/MS used the following method: 0–1.5 min, 100% A and then 1.5–12 min linear gradient from 0 to 100% B, 12–14 min 100% B, and 15.0–19.0 min 100% A for re-equilibration of the column. Data were collected and analyzed using MassLynx version 4.0.

[3] = FIH with the named substrate, 0.1–5 μM FIH, 2OG varied, 50 mM HEPES pH 7.5, 37 °C, MALDI-TOF-MS (LC-MS for 2CA, 3CA), triplicate assays, read-out: Km^app(2OG)
[4] = FIH, 0.1–5 μM FIH, substrate varied, 2OG fixed, 50 mM HEPES pH 7.5, 37 °C, MALDI-TOF-MS (LC-MS for 2CA, 3CA), triplicate assays, read-out: Km^app(peptide)

T1 sequence (Q9NWT6 whole entry): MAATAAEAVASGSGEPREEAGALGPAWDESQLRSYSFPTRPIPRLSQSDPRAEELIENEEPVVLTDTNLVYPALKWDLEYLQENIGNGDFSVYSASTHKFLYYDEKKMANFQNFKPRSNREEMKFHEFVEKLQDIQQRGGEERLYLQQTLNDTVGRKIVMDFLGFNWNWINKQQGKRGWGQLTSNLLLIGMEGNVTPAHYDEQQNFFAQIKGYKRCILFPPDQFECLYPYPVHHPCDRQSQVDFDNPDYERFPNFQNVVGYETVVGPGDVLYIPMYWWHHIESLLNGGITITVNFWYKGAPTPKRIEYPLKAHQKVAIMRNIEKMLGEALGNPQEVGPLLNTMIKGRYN

Sequence	Rapid quench-flow kproduct (FIH [1])	Rapid quench-flow kproduct (FIH [1]; listed as tnkrs-1_35mer) [s⁻¹]	Rapid quench-flow ksuccinate (FIH [1]) [s⁻¹]	product formation rate, fold faster than for the 20-mer (FIH [1]; rapid quench-flow, 5 °C) [fold]	Km (FIH [2]; [3]) [µM]	kcat^app (FIH [2]; FIH, 50 mM HEPES pH 7.5, 37 °C) [s⁻¹]	Km (FIH [2]; [4]) [µM]	Rapid quench-flow kproduct (FIH [1]; listed as CAD HIF-1α35-mer) [s⁻¹]	Km (FIH [2]; 5 μM FIH, peptide 500-1000 µM fixed, 2OG varied, Figure S3B, read-out: Km^app(2OG), fitting with a substrate inhibition model) [µM]	2OG concentration above which substrate inhibition was observed (FIH [2]) [µM]	product accumulation rate, fold faster than the reaction with HIF 35-mer substrates (FIH [1]; rapid quench-flow, 5 °C) [fold]
AAGYNNLEVAEYLLEHGADVNAQDKGGLIPLHNAA [tnkrs-1_35-mer, 35-mer fragment of tankyrase-1, ARD substrate of FIH]	11 ± 3 s⁻¹	11	10 ± 3	~7	61 ± 7	3.0 ± 0.2	14 ± 4	–	–	–	–
DESGLPQLTSYDCEVNAPIQGSRNLLQGEELLRAL [HIF-1α CAD35-mer]	0.33 s⁻¹	–	0.3 ± 0.1	–	110 ± 20	0.56 ± 0.04	180 ± 30	0.33 ± 0.07	300 ± 100	> 100	–
ESYLLPELTRYDCEVNVPVLGSSTLLQGGDLLRAL [HIF-2α CAD35-mer]	0.12 ± 0.01 s⁻¹	–	0.11 ± 0.03	–	19 ± 6	0.049 ± 0.005	315 ± 40	–	–	> 700	–
GSHMGSDLGKKLLEAARAGQDDEVRILMANGADVAAKDKNGSTPLHLAARNGHLEVVKLLLEAGADVNAQDKFGKTAFDISIDNGNEDLAEILQ [3CA, recombinant three-consensus ankyrin repeat protein produced in Escherichia coli]	0.051 s⁻¹ and 0.051 ± 0.001 s⁻¹	–	–	–	200 ± 60	0.6 ± 0.2	60 ± 15	–	–	–	–
HLEVVKLLLEAGADVNAQDK [1CA20-mer]	1.3 ± 0.2 s⁻¹	–	0.8 ± 0.3	–	290 ± 50	1.6 ± 0.1	25 ± 7	–	–	–	~10
SDKNGSTPLHLAARNGHLEVVKLLLEHGADVNAQDKWGKTAFDISIDNGNEDLAEILQ [2CA, recombinant two-consensus ankyrin repeat protein produced in Escherichia coli]	0.5 ± 0.1 s⁻¹	–	–	–	110 ± 30	1.7 ± 0.2	16 ± 3	–	–	–	–
